Test in all cases: Minimal Inhibitory Concentration by Microtitration, dilution in TSB
Holding throughout (assay type): cell-based

Experiment [1] has as its system Pseudomonas aeruginosa UI-18. The note with it: UI18, TSB (Trypticase soy broth). From the text:
(§1) Minimal Inhibitory Concentration by Microtitration (μg/ml)
(§2) Dilution in TSB (Trypticase soy broth).

Experiment [2] deals with Pseudomonas aeruginosa BRK 12-4-4. The note with it: BRK1244, TSB (Trypticase soy broth).
Source text: as §1, §2

Experiment [3] concerns Serratia marcescens IMM-16. The note with it: IMM16, TSB (Trypticase soy broth).
Source text: as §1, §2

Experiment [4] concerns Klebsiella pneumoniae MGH-2. The note with it: MGH2, TSB (Trypticase soy broth).
Source text: as §1, §2

Experiment [5] relates to Enterobacter cloacae IMM-11. The settings on record: IMM11, TSB (Trypticase soy broth).
Source text: as §1, §2

≈ marks a conversion by molar mass, not a printed value.

With `COC1C[C@@H](C(=O)Nc2ccc(-c3ccc(C(=O)N[C@@H](C(=O)N[C@@H]4C(=O)N5[C@@H]4SC(C)(C)[C@@H]5C(=O)O)c4ccc(O)cc4)c(=O)[nH]3)cc2)N(C(C)=O)C1` (some centres unmarked), the MIC (in general, the lowest concentration found to suppress growth) in experiment [1] was 3.1 mg/L (≈ 4.15 µM); in experiment [2], 6.3 mg/L (≈ 8.44 µM); in experiment [3] it was 12.5 mg/L (≈ 16.7 µM); in experiment [4], 25 mg/L (≈ 33.5 µM); in experiment [5], 12.5 mg/L (≈ 16.7 µM).
For `CC(=O)NCCCC[C@H](NC(C)=O)C(=O)Nc1ccc(-c2ccc(C(=O)N[C@@H](C(=O)N[C@@H]3C(=O)N4[C@@H]3SC(C)(C)[C@@H]4C(=O)O)c3ccc(O)cc3)c(=O)[nH]2)cc1`, the minimal inhibitory concentration (MIC) in experiment [1] worked out at 6.3 mg/L (≈ 7.98 µM); in experiment [2] it was 6.3 mg/L (≈ 7.98 µM); in experiment [3], 50 mg/L (≈ 63.3 µM); in experiment [4], 25 mg/L (≈ 31.7 µM); in experiment [5], 12.5 mg/L (≈ 15.8 µM).
Turning to `CC(=O)OC1C[C@@H](C(=O)Nc2ccc(-c3ccc(C(=O)N[C@@H](C(=O)N[C@@H]4C(=O)N5[C@@H]4SC(C)(C)[C@@H]5C(=O)O)c4ccc(O)cc4)c(=O)[nH]3)cc2)N(C(C)=O)C1` (some centres unmarked), the MIC turned out to be 1.6 mg/L (≈ 2.07 µM) in experiment [1]; 1.6 mg/L (≈ 2.07 µM) in experiment [2]; 6.3 mg/L (≈ 8.13 µM) in experiment [3]; 12.5 mg/L (≈ 16.1 µM) in experiment [4]; 6.3 mg/L (≈ 8.13 µM) in experiment [5].
Regarding `CC(=O)N1CC=CC1C(=O)Nc1ccc(-c2ccc(C(=O)N[C@@H](C(=O)N[C@@H]3C(=O)N4[C@@H]3SC(C)(C)[C@@H]4C(=O)O)c3ccc(O)cc3)c(=O)[nH]2)cc1` (some centres unmarked), the MIC in experiment [1] amounted to 3.1 mg/L (≈ 4.34 µM); in experiment [2], 3.1 mg/L (≈ 4.34 µM); in experiment [3], 12.5 mg/L (≈ 17.5 µM); in experiment [4], 12.5 mg/L (≈ 17.5 µM); in experiment [5], 6.3 mg/L (≈ 8.81 µM).
Regarding `CCC(=O)OC1C[C@@H](C(=O)Nc2ccc(-c3ccc(C(=O)N[C@@H](C(=O)N[C@@H]4C(=O)N5[C@@H]4SC(C)(C)[C@@H]5C(=O)O)c4ccc(O)cc4)c(=O)[nH]3)cc2)N(C(C)=O)C1` (some centres unmarked), the MIC in experiment [1] stood at 1.6 mg/L (≈ 2.03 µM); in experiment [2] it was 3.1 mg/L (≈ 3.93 µM); in experiment [3], 6.3 mg/L (≈ 7.99 µM); in experiment [4], 12.5 mg/L (≈ 15.8 µM); in experiment [5], 6.3 mg/L (≈ 7.99 µM).
In the case of `CC(=O)N1CCC[C@H]1C(=O)Nc1ccc(-c2ccc(C(=O)N[C@@H](C(=O)N[C@@H]3C(=O)N4[C@@H]3SC(C)(C)[C@@H]4C(=O)O)c3ccc(O)cc3)c(=O)[nH]2)cc1`, the MIC in experiment [1] came out at 1.6 mg/L (≈ 2.23 µM); in experiment [2], 1.6 mg/L (≈ 2.23 µM); in experiment [3] it was 6.3 mg/L (≈ 8.79 µM); in experiment [4], 12.5 mg/L (≈ 17.4 µM); in experiment [5], 6.3 mg/L (≈ 8.79 µM).
For the compound `CC(=O)N[C@@H](CCC(N)=O)C(=O)Nc1ccc(-c2ccc(C(=O)N[C@@H](C(=O)N[C@@H]3C(=O)N4[C@@H]3SC(C)(C)[C@@H]4C(=O)O)c3ccc(O)cc3)c(=O)[nH]2)cc1`, the minimal inhibitory concentration (MIC) in experiment [1] turned out to be 1.6 mg/L (≈ 2.14 µM); in experiment [2], 3.1 mg/L (≈ 4.15 µM); in experiment [3], 3.1 mg/L (≈ 4.15 µM); in experiment [4], 12.5 mg/L (≈ 16.7 µM); in experiment [5] it was 3.1 mg/L (≈ 4.15 µM).
For `CN1C(=O)CC[C@H]1C(=O)Nc1ccc(-c2ccc(C(=O)N[C@@H](C(=O)N[C@@H]3C(=O)N4[C@@H]3SC(C)(C)[C@@H]4C(=O)O)c3ccc(O)cc3)c(=O)[nH]2)cc1`, the MIC in experiment [1] was found to be 0.8 mg/L (≈ 1.14 µM); in experiment [2] it was 1.6 mg/L (≈ 2.28 µM); in experiment [3], 6.3 mg/L (≈ 8.96 µM); in experiment [4] it was 6.3 mg/L (≈ 8.96 µM); in experiment [5], 3.1 mg/L (≈ 4.41 µM).
Turning to `C[C@H](NC=O)C(=O)Nc1ccc(-c2ccc(C(=O)N[C@@H](C(=O)N[C@@H]3C(=O)N4[C@@H]3SC(C)(C)[C@@H]4C(=O)O)c3ccc(O)cc3)c(=O)[nH]2)cc1`, the MIC in experiment [1] came out at 1.6 mg/L (≈ 2.36 µM); in experiment [2] it was 1.6 mg/L (≈ 2.36 µM); in experiment [3], 3.1 mg/L (≈ 4.58 µM); in experiment [4] it was 6.3 mg/L (≈ 9.31 µM); in experiment [5] it was 3.1 mg/L (≈ 4.58 µM).
Regarding `CC(=O)N[C@@H](C)C(=O)Nc1ccc(-c2ccc(C(=O)N[C@@H](C(=O)N[C@@H]3C(=O)N4[C@@H]3SC(C)(C)[C@@H]4C(=O)O)c3ccc(O)cc3)c(=O)[nH]2)cc1`, the MIC in experiment [1] came to 0.8 mg/L (≈ 1.16 µM); in experiment [2] it was 1.6 mg/L (≈ 2.32 µM); in experiment [3] it was 3.1 mg/L (≈ 4.49 µM); in experiment [4], 3.1 mg/L (≈ 4.49 µM); in experiment [5], 1.6 mg/L (≈ 2.32 µM).
For the compound `CC(=O)NCCCC(=O)Nc1ccc(-c2ccc(C(=O)N[C@@H](C(=O)N[C@@H]3C(=O)N4[C@@H]3SC(C)(C)[C@@H]4C(=O)O)c3ccc(O)cc3)c(=O)[nH]2)cc1`, the MIC was 1.6 mg/L (≈ 2.27 µM) in experiment [1]; 3.1 mg/L (≈ 4.4 µM) in experiment [2]; 3.1 mg/L (≈ 4.4 µM) in experiment [3]; 3.1 mg/L (≈ 4.4 µM) in experiment [4]; 6.3 mg/L (≈ 8.94 µM) in experiment [5].
Take `CC(=O)N1CC(OC=O)C[C@H]1C(=O)Nc1ccc(-c2ccc(C(=O)N[C@@H](C(=O)N[C@@H]3C(=O)N4[C@@H]3SC(C)(C)[C@@H]4C(=O)O)c3ccc(O)cc3)c(=O)[nH]2)cc1` (some centres unmarked): the MIC in experiment [1] came to 0.8 mg/L (≈ 1.05 µM); in experiment [2], 0.8 mg/L (≈ 1.05 µM); in experiment [3], 6.3 mg/L (≈ 8.28 µM); in experiment [4], 6.3 mg/L (≈ 8.28 µM); in experiment [5] it was 1.6 mg/L (≈ 2.1 µM).
As for `C[C@H](NC(N)=O)C(=O)Nc1ccc(-c2ccc(C(=O)N[C@@H](C(=O)N[C@@H]3C(=O)N4[C@@H]3SC(C)(C)[C@@H]4C(=O)O)c3ccc(O)cc3)c(=O)[nH]2)cc1`, the MIC came out at 1.6 mg/L (≈ 2.31 µM) in experiment [1]; 1.6 mg/L (≈ 2.31 µM) in experiment [2]; 3.1 mg/L (≈ 4.48 µM) in experiment [3]; 6.3 mg/L (≈ 9.11 µM) in experiment [4]; 6.3 mg/L (≈ 9.11 µM) in experiment [5].
As for `CC1(C)S[C@@H]2[C@H](NC(=O)[C@H](NC(=O)c3ccc(-c4ccc(NC(=O)[C@@H]5CCC(=O)N5)cc4)[nH]c3=O)c3ccc(O)cc3)C(=O)N2[C@H]1C(=O)O`, the MIC in experiment [1] was determined as 3.1 mg/L (≈ 4.5 µM); in experiment [2] it was 1.6 mg/L (≈ 2.32 µM); in experiment [3], 3.1 mg/L (≈ 4.5 µM); in experiment [4] it was 6.3 mg/L (≈ 9.15 µM); in experiment [5] it was 1.6 mg/L (≈ 2.32 µM).
On to `CC(=O)N[C@@H](C)C(=O)N[C@@H](C)C(=O)Nc1ccc(-c2ccc(C(=O)N[C@@H](C(=O)N[C@@H]3C(=O)N4[C@@H]3SC(C)(C)[C@@H]4C(=O)O)c3ccc(O)cc3)c(=O)[nH]2)cc1`, for which the MIC in experiment [1] was 3.1 mg/L (≈ 4.07 µM); in experiment [2] it was 6.3 mg/L (≈ 8.27 µM); in experiment [3], 6.3 mg/L (≈ 8.27 µM); in experiment [4] it was 25 mg/L (≈ 32.8 µM); in experiment [5], 12.5 mg/L (≈ 16.4 µM).
`CC(=O)N1CC(O)C[C@H]1C(=O)Nc1ccc(-c2ccc(C(=O)N[C@@H](C(=O)N[C@@H]3C(=O)N4[C@@H]3SC(C)(C)[C@@H]4C(=O)O)c3ccc(O)cc3)c(=O)[nH]2)cc1` (some centres unmarked): the MIC in experiment [1] came out at 1.6 mg/L (≈ 2.18 µM); in experiment [2], 3.1 mg/L (≈ 4.23 µM); in experiment [3], 6.3 mg/L (≈ 8.6 µM); in experiment [4] it was 12.5 mg/L (≈ 17.1 µM); in experiment [5], 3.1 mg/L (≈ 4.23 µM).
In the case of `CC(=O)O[C@@H]1C[C@H](C(=O)Nc2ccc(-c3ccc(C(=O)N[C@@H](C(=O)N[C@@H]4C(=O)N5[C@@H]4SC(C)(C)[C@@H]5C(=O)O)c4ccc(O)cc4)c(=O)[nH]3)cc2)N(C(C)=O)C1`, the MIC in experiment [1] is 3.1 mg/L (≈ 4 µM); in experiment [2], 6.3 mg/L (≈ 8.13 µM); in experiment [3] it was 12.5 mg/L (≈ 16.1 µM); in experiment [4] it was 25 mg/L (≈ 32.3 µM); in experiment [5], 12.5 mg/L (≈ 16.1 µM).
Take `CC1(C)S[C@@H]2[C@H](NC(=O)[C@H](NC(=O)c3ccc(-c4ccc(NC(=O)CN5CCCC5=O)cc4)[nH]c3=O)c3ccc(O)cc3)C(=O)N2[C@H]1C(=O)O`: the MIC in experiment [1] worked out at 3.1 mg/L (≈ 4.41 µM); in experiment [2] it was 3.1 mg/L (≈ 4.41 µM); in experiment [3], 6.3 mg/L (≈ 8.96 µM); in experiment [4] it was 6.3 mg/L (≈ 8.96 µM); in experiment [5] it was 3.1 mg/L (≈ 4.41 µM).
With `CC(=O)N1CC(=O)C[C@H]1C(=O)Nc1ccc(-c2ccc(C(=O)N[C@@H](C(=O)N[C@@H]3C(=O)N4[C@@H]3SC(C)(C)[C@@H]4C(=O)O)c3ccc(O)cc3)c(=O)[nH]2)cc1`, the minimal inhibitory concentration (MIC) in experiment [1] is 3.1 mg/L (≈ 4.24 µM); in experiment [2], 6.3 mg/L (≈ 8.62 µM); in experiment [3], 12.5 mg/L (≈ 17.1 µM); in experiment [4], 25 mg/L (≈ 34.2 µM); in experiment [5], 12.5 mg/L (≈ 17.1 µM).

Source of the values: US4278681A, “Antibacterial amide compounds and means for using the same” (Warner-Lambert Co., priority 1980, dated 1981).
